The values that follow come from ChEMBL document CHEMBL5576096, “Triplinones A-H: Anti-Inflammatory Arylalkenyl α,β-Unsaturated-δ-Lactones Isolated from the Leaves of Australian Rainforest Plant Cryptocarya triplinervis (Lauraceae)” (J Nat Prod, 2024).

A value given as a limit tells only on which side of the number the result lay.

One series deals with RAW264.7. Description: Inhibition of NO production in LPS/IFNgamma-stimulated mouse RAW264.7 cells preincubated for 1 hr followed by LPS/IFNgamma addition and measured after 24 hrs by griess reagent based assay. The series is classed as functional, cell-based. (Griess reagent forms a coloured azo dye with nitrite.)
Series [1] in a line: Therapeutic index, ratio of LC50 for cytotoxicity against LPS/IFNgamma-stimulated mouse RAW264.7 cells to IC50 for inhibition of NO production in LPS/IFNgamma-stimulated mouse RAW264.7 cells. The series is classed as toxicity, cell-based. To be noted: LPS/IFNgamma-stimulated RAW264.7 cells, read-out: Ratio LC50/IC50.
Series [2] in a line: Inhibition of TNF-alpha production in LPS/IFNgamma-stimulated mouse RAW264.7 cells preincubated for 1 hr followed by LPS/IFNgamma addition and measured after 24 hrs by ELISA. The series is classed as functional, cell-based. A general note: ELISA stands for enzyme-linked immunosorbent assay.
The nature of series [3]: Cytotoxicity against LPS/IFNgamma-stimulated mouse RAW264.7 cells assessed as reduction in cell viability after 24 hrs by Alamar Blue assay. The series is classed as toxicity, cell-based. The settings on record: LPS/IFNgamma-stimulated RAW264.7 cells, read-out: LC50. (In general: The colour change of resazurin is a common sign of viable cells or microbes.)

The IC50 is the point on the concentration scale where inhibition reaches its midpoint. As to `CC(=O)O[C@H](C[C@@H](O)CC/C=C/c1ccccc1)C[C@H]1CC=CC(=O)O1`, the values for the IC50 (in the series on RAW264.7; in series [2]) were 10.3 µM and 17.1 µM, respectively. Moreover, in series [1], the selectivity ratio stood at 9.5. The CC50 at 24 h in series [3] amounted to 97.9 µM.
The matching figures for `O=C1C=CC[C@H](CCC[C@H](O)C[C@@H](O)CC/C=C/c2ccccc2)O1`: 6 µM, 27.4 µM, 5.6 and 33.4 µM.
The matching figures for `O=C1C=CC[C@H](CC(O)/C=C/C[C@H](O)C[C@@H](O)CC/C=C/c2ccccc2)O1` (stereo partly specified): 64.7 µM, 39.1 µM, 2.5 and 159 µM.
The matching figures for `O=C1C=CC[C@H](C[C@@H](O)CCC[C@H](O)C[C@@H](O)CC/C=C/c2ccccc2)O1`: 15 µM, 28.9 µM, 2.8 and 41.3 µM.
For `COc1cc(/C=C/C(=O)CC(=O)/C=C/c2ccc(O)c(OC)c2)ccc1O` [CURCUMIN], the values for the IC50 (with RAW264.7; in series [2]) were 22.5 µM and 31.2 µM, respectively. Also, the selectivity ratio in series [1] amounted to 3.2. Besides, the CC50 at 24 h in series [3] stood at 73 µM.
For `O=C1C=CC[C@H](/C=C/C=C/C[C@H](O)C[C@@H](O)CC/C=C/c2ccccc2)O1`, the IC50 turned out to be 5.4 µM with RAW264.7 and 27.9 µM in series [2]. Further, the selectivity ratio in series [1] is 7.6. Besides, in series [3], the CC50 at 24 h was 41.3 µM.
The matching figures for `O=C1C=CC[C@H](C[C@@H](O)C[C@H](O)C[C@@H](O)CC/C=C/c2ccccc2)O1`: 102 µM, above 278 µM, above 2.7 and above 278 µM.
The matching figures for `O=C1C=CC[C@H](C[C@H](O)C[C@@H](O)CC/C=C/c2ccccc2)O1`: 5.6 µM, 29.4 µM, 6.8 and 37.6 µM.
Turning to `O=C1C=CC[C@H](/C=C/C[C@H](O)C[C@@H](O)CC/C=C/c2ccccc2)O1`, the IC50 worked out at 7.3 µM in the series on RAW264.7 and 28.3 µM in series [2]. In addition, the selectivity ratio in series [1] turned out to be 10.9. For the same compound, in series [3], the CC50 at 24 h is 79.8 µM.
